Laboratory results: US20140121101A1, “TERNARY FUNGICIDAL COMPOSITIONS COMPRISING A DITHIINO-TETRACARBOXAMIDE FUNGICIDE” (BAYER INTELLECTUAL PROPERTY GMBH, priority 2011, published 2014)

System: Alternaria solani
Test: Alternaria test (tomatoes)/preventive
Type: in vivo
Conditions: tomato plants, preventive spray, evaluated 3 days after inoculation
Procedure: Alternaria Test (Tomatoes)/Preventive [table] To produce a suitable preparation of active compound, 1 part by weight of active compound is mixed with the stated amounts of solvent and emulsifier, and the concentrate is diluted with water to the desired concentration. To test for preventive activity, young plants are sprayed with the preparation of active compound at the stated rate of application. After the spray coating has dried on, the plants are inoculated with an aqueous spore suspension of Alternaria solani. The plants are then placed in an incubation cabinet at approximately 20° C. and a relative atmospheric humidity of 100%. The test is evaluated 3 days after the inoculation. 0% means an efficacy which corresponds to that of the untreated control while an efficacy of 100% means that no disease is observed.

CON=C(C(=O)OC)c1ccccc1CON=C(C)c1cccc(C(F)(F)F)c1 [(3.22), trifloxystrobin]
Efficacy in % found (activity found) (0.5 ppm a.i.): 29%

Cn1c(=O)c2sc3c(=O)n(C)c(=O)c3sc2c1=O [(1.1), 2,6-dimethyl-1H,5H-[1,4]dithiino[2,3-c:5,6-c′]dipyrrole-1,3,5,7(2H,6H)-tetrone]
Efficacy in % found (activity found) (5 ppm a.i.): 0%

OC(Cc1ccccc1Cl)(Cn1nc[nH]c1=S)C1(Cl)CC1 (stereo not drawn) [(2.41), prothioconazole]
Efficacy in % found (activity found) (0.5 ppm a.i.): 4%
